Source: ChEMBL document CHEMBL1201861, “Genomics of Drug Sensitity in Cancer screening data, Wellcome Trust Sanger Institute”
Several values for one entry are separate records, joined by “and”; a condition that tells them apart may be missing. Equal entries are not always repeated.

Key:
[1] = system: LU-135; test: cells; type: functional, cell-based; conditions: Homo sapiens
Description: SANGER: Inhibition of human LU-135 cell growth in a cell viability assay.

[2] = system: YH-13; test: cells; type: functional, cell-based; conditions: Homo sapiens;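 also: cell viability readout of growth suppression in the human YH-13 cell line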
Description: SANGER: Inhibition of human YH-13 cell growth in a cell viability assay.

[3] = system: NCI-H1703; test: cells; type: functional, cell-based, Homo sapiens;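 also: growth inhibition of NCI-H1703 cells, read out via a cell viability assay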
Description: SANGER: Inhibition of human NCI-H1703 cell growth in a cell viability assay.

[4] = system: MEL-JUSO; test: cells; type: functional, cell-based, Homo sapiens;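 also: growth inhibition of human MEL-JUSO cells, read out with a cell viability assay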
Description: SANGER: Inhibition of human MEL-JUSO cell growth in a cell viability assay.

[5] = system: NCI-H1048; test: cells; type: functional, cell-based; conditions: Homo sapiens;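 also: growth inhibition of human NCI-H1048 cells, read out with a cell viability assay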
Description: SANGER: Inhibition of human NCI-H1048 cell growth in a cell viability assay.

[6] = system: EPLC-272H; test: cells; type: functional, cell-based; conditions: Homo sapiens
Description: SANGER: Inhibition of human EPLC-272H cell growth in a cell viability assay.

[7] = system: KNS-62; test: cells; type: functional, cell-based; conditions: Homo sapiens;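 also: inhibition of cell growth, read out with a cell viability assay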
Description: SANGER: Inhibition of human KNS-62 cell growth in a cell viability assay.

[8] = system: SW 1116; test: cells; type: functional, cell-based; conditions: Homo sapiens;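 also: growth inhibition of SW1116 cells, read out with a cell viability assay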
Description: SANGER: Inhibition of human SW1116 cell growth in a cell viability assay.

[9] = system: CFPAC-1; test: cells; type: functional, cell-based; conditions: Homo sapiens;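 also: cell viability readout used to gauge suppression of CFPAC-1 cell proliferation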
Description: SANGER: Inhibition of human CFPAC-1 cell growth in a cell viability assay.

[10] = system: NCI-H2291; test: cells; type: functional, cell-based; conditions: Homo sapiens
Description: SANGER: Inhibition of human NCI-H2291 cell growth in a cell viability assay.

[11] = system: SW900; test: cells; type: functional, cell-based; conditions: Homo sapiens;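 also: IC50 is the concentration that inhibits SW900 cell growth, measured by a cell viability assay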
Description: SANGER: Inhibition of human SW900 cell growth in a cell viability assay.

[12] = system: D-423MG; test: cells; type: functional, cell-based; conditions: Homo sapiens
Description: SANGER: Inhibition of human D-423MG cell growth in a cell viability assay.

[13] = system: NCI-H187; test: cells; type: functional, cell-based; conditions: Homo sapiens;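 also: growth inhibition of NCI-H187 cells, read out as cell viability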
Description: SANGER: Inhibition of human NCI-H187 cell growth in a cell viability assay.

[14] = system: IM-9; test: SANGER: Inhibition of human IM-9 cell growth in a cell viability assay.; type: functional, cell-based
[15] = system: SCLC-21H; test: cells; type: functional, cell-based; conditions: Homo sapiens;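 also: growth inhibition of cultured human SCLC-21H cells, read out with a cell viability assay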
Description: SANGER: Inhibition of human SCLC-21H cell growth in a cell viability assay.

[16] = system: NALM-6; test: cells; type: functional, cell-based; conditions: Homo sapiens;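 also: growth inhibition of NALM-6 cells, read out with a cell viability assay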
Description: SANGER: Inhibition of human NALM-6 cell growth in a cell viability assay.

[17] = system: EB2; test: cells; type: functional, cell-based; conditions: Homo sapiens;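 also: growth inhibition of EB2 cells, read out with a cell viability assay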
Description: SANGER: Inhibition of human EB2 cell growth in a cell viability assay.

[18] = system: Daudi; test: cells; type: functional, cell-based; conditions: Homo sapiens;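 also: growth inhibition of Daudi cells, read out by a viability assay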
Description: SANGER: Inhibition of human Daudi cell growth in a cell viability assay.

[19] = system: LP-1; test: cells; type: functional, cell-based; conditions: Homo sapiens;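 also: growth inhibition of human LP-1 cells, with the read-out taken from a cell viability assay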
Description: SANGER: Inhibition of human LP-1 cell growth in a cell viability assay.

[20] = system: NCI-H522; test: cells; type: functional, cell-based, Homo sapiens;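 also: cell viability assay measuring growth inhibition of human NCI-H522 cells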
Description: SANGER: Inhibition of human NCI-H522 cell growth in a cell viability assay.

[21] = system: DG-75; test: cells; type: functional, cell-based; conditions: Homo sapiens;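 also: growth inhibition of DG-75 cells, read out with a cell viability assay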
Description: SANGER: Inhibition of human DG-75 cell growth in a cell viability assay.

[22] = system: MC-CAR; test: cells; type: functional, cell-based; conditions: Homo sapiens;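 also: growth inhibition of the human MC-CAR cell line, read out by a cell viability assay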
Description: SANGER: Inhibition of human MC-CAR cell growth in a cell viability assay.

[23] = system: HCT-15; test: cells; type: functional, cell-based, Homo sapiens;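 also: cell viability readout, IC50 reflecting suppression of HCT-15 cell growth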
Description: SANGER: Inhibition of human HCT-15 cell growth in a cell viability assay.

[24] = system: ARH-77; test: cells; type: functional, cell-based; conditions: Homo sapiens;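 also: growth inhibition of ARH-77 cells, read out by a cell viability assay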
Description: SANGER: Inhibition of human ARH-77 cell growth in a cell viability assay.

[25] = system: SK-MM-2; test: cells; type: functional, cell-based; conditions: Homo sapiens;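 also: growth inhibition of human SK-MM-2 cells, read out with a cell viability assay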
Description: SANGER: Inhibition of human SK-MM-2 cell growth in a cell viability assay.

[26] = system: NCCIT; test: SANGER: Inhibition of human NCCIT cell growth in a cell viability assay.; type: functional, cell-based
[27] = system: IST-SL2; test: cells; type: functional, cell-based; conditions: Homo sapiens;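 also: growth inhibition of human IST-SL2 cells, read out by a cell viability assay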
Description: SANGER: Inhibition of human IST-SL2 cell growth in a cell viability assay.

[28] = system: HCC1599; test: cells; type: functional, cell-based; conditions: Homo sapiens;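 also: growth inhibition of HCC1599 cells, read out in a cell viability assay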
Description: SANGER: Inhibition of human HCC1599 cell growth in a cell viability assay.

[29] = system: NCI-H748; test: cells; type: functional, cell-based; conditions: Homo sapiens;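 also: growth inhibition of NCI-H748 cells, measured by a cell viability assay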
Description: SANGER: Inhibition of human NCI-H748 cell growth in a cell viability assay.

[30] = system: TUR; test: cells; type: functional, cell-based; conditions: Homo sapiens;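 also: growth inhibition of human TUR cells, read out with a cell viability assay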
Description: SANGER: Inhibition of human TUR cell growth in a cell viability assay.

[31] = system: CAL-148; test: cells; type: functional, cell-based; conditions: Homo sapiens
Description: SANGER: Inhibition of human CAL-148 cell growth in a cell viability assay.

[32] = system: NCI-H1694; test: cells; type: functional, cell-based; conditions: Homo sapiens;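 also: cell viability assay measuring inhibition of growth in human NCI-H1694 cells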
Description: SANGER: Inhibition of human NCI-H1694 cell growth in a cell viability assay.

[33] = system: NCI-H1882; test: cells; type: functional, cell-based; conditions: Homo sapiens
Description: SANGER: Inhibition of human NCI-H1882 cell growth in a cell viability assay.

[34] = system: EHEB; test: cells; type: functional, cell-based; conditions: Homo sapiens;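 also: growth inhibition of human EHEB cells, read out with a cell viability assay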
Description: SANGER: Inhibition of human EHEB cell growth in a cell viability assay.

[35] = system: REH; test: cells; type: functional, cell-based; conditions: Homo sapiens;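 also: growth inhibition of REH cells determined with a cell viability read-out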
Description: SANGER: Inhibition of human REH cell growth in a cell viability assay.

[36] = system: NCI-H1417; test: cells; type: functional, cell-based; conditions: Homo sapiens;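 also: human NCI-H1417 cells, growth inhibition determined with a cell viability readout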
Description: SANGER: Inhibition of human NCI-H1417 cell growth in a cell viability assay.

[37] = system: NCI-H2141; test: cells; type: functional, cell-based; conditions: Homo sapiens;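 also: growth inhibition of human NCI-H2141 cells, read out with a cell viability assay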
Description: SANGER: Inhibition of human NCI-H2141 cell growth in a cell viability assay.

[38] = system: LB647-SCLC; test: cells; type: functional, cell-based; conditions: Homo sapiens;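 also: cell growth inhibition, read out by a viability assay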
Description: SANGER: Inhibition of human LB647-SCLC cell growth in a cell viability assay.

[39] = system: NCI-H345; test: cells; type: functional, cell-based; conditions: Homo sapiens;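 also: growth inhibition of NCI-H345 cells measured with a cell viability assay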
Description: SANGER: Inhibition of human NCI-H345 cell growth in a cell viability assay.

[40] = system: IMR-5; test: cells; type: functional, cell-based; conditions: Homo sapiens;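 also: growth inhibition of human IMR-5 cells, read out with a cell viability assay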
Description: SANGER: Inhibition of human IMR-5 cell growth in a cell viability assay.

[41] = system: BC1 cell line; test: SANGER: Inhibition of human BC-1 cell growth in a cell viability assay.; type: functional, cell-based
[42] = system: EB-3; test: cells; type: functional, cell-based; conditions: Homo sapiens;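 also: human EB-3 cells, growth inhibition read out via a cell viability assay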
Description: SANGER: Inhibition of human EB-3 cell growth in a cell viability assay.

[43] = system: NCI-H2171; test: cells; type: functional, cell-based; conditions: Homo sapiens;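 also: growth inhibition of human NCI-H2171 cells, read out by a cell viability assay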
Description: SANGER: Inhibition of human NCI-H2171 cell growth in a cell viability assay.

[44] = system: NCI-H460; test: cells; type: functional, cell-based, Homo sapiens;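 also: cell viability assay scoring growth inhibition of human NCI-H460 cells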
Description: SANGER: Inhibition of human NCI-H460 cell growth in a cell viability assay.

[45] = system: THP-1; test: cells; type: functional, cell-based; conditions: Homo sapiens;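 also: growth inhibition of THP-1 cells, read out via a cell viability assay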
Description: SANGER: Inhibition of human THP-1 cell growth in a cell viability assay.

[46] = system: MDA-MB-134-VI; test: cells; type: functional, cell-based; conditions: Homo sapiens
Description: SANGER: Inhibition of human MDA-MB-134-VI cell growth in a cell viability assay.

[47] = system: ST486; test: SANGER: Inhibition of human ST486 cell growth in a cell viability assay.; type: functional, cell-based
[48] = system: NCI-H2227; test: cells; type: functional, cell-based; conditions: Homo sapiens;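 also: growth inhibition of the human cell line, read out with a cell viability assay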
Description: SANGER: Inhibition of human NCI-H2227 cell growth in a cell viability assay.

[49] = system: SR; test: cells; type: functional, cell-based; conditions: Homo sapiens
Description: SANGER: Inhibition of human SR cell growth in a cell viability assay.

[50] = system: NCI-H64; test: cells; type: functional, cell-based; conditions: Homo sapiens;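 also: growth inhibition of NCI-H64 cells, read out with a cell viability assay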
Description: SANGER: Inhibition of human NCI-H64 cell growth in a cell viability assay.

[51] = system: NCI-H2009; test: cells; type: functional, cell-based, Homo sapiens;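 also: cell viability assay measuring inhibition of NCI-H2009 cell growth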
Description: SANGER: Inhibition of human NCI-H2009 cell growth in a cell viability assay.

[52] = system: NCI-H322M; test: cells; type: functional, cell-based; conditions: Homo sapiens;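 also: cell viability assay measuring inhibition of growth of human NCI-H322M cells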
Description: SANGER: Inhibition of human NCI-H322M cell growth in a cell viability assay.

[53] = system: NCI-H719; test: cells; type: functional, cell-based; conditions: Homo sapiens;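 also: growth inhibition of the cultured cell line, read out with a viability assay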
Description: SANGER: Inhibition of human NCI-H719 cell growth in a cell viability assay.

[54] = system: DMS-153; test: cells; type: functional, cell-based; conditions: Homo sapiens
Description: SANGER: Inhibition of human DMS-153 cell growth in a cell viability assay.

[55] = system: KMS-12-PE; test: cells; type: functional, cell-based; conditions: Homo sapiens;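 also: growth inhibition of human KMS-12-PE cells, measured with a cell viability assay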
Description: SANGER: Inhibition of human KMS-12-PE cell growth in a cell viability assay.

[56] = system: ECC4; test: cells; type: functional, cell-based; conditions: Homo sapiens;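 also: growth inhibition of ECC4 cells, read out with a cell viability assay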
Description: SANGER: Inhibition of human ECC4 cell growth in a cell viability assay.

[57] = system: G-361; test: cells; type: functional, cell-based, Homo sapiens
[58] = system: SJRH30; test: cells; type: functional, cell-based; conditions: Homo sapiens;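 also: growth inhibition of human SJRH30 cells, read out with a cell viability assay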
Description: SANGER: Inhibition of human SJRH30 cell growth in a cell viability assay.

[59] = system: RPMI-6666; test: cells; type: functional, cell-based; conditions: Homo sapiens
Description: SANGER: Inhibition of human RPMI-6666 cell growth in a cell viability assay.

[60] = system: K052; test: cells; type: functional, cell-based; conditions: Homo sapiens;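 also: Read-out from a cell viability assay, IC50 reflecting suppression of K052 cell growth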
Description: SANGER: Inhibition of human K052 cell growth in a cell viability assay.

[61] = system: LC-1F; test: cells; type: functional, cell-based; conditions: Homo sapiens;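 also: growth inhibition of human LC-1F cells, read out with a cell viability assay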
Description: SANGER: Inhibition of human LC-1F cell growth in a cell viability assay.

Measured: IC50

CN(Cc1cnc2nc(N)nc(N)c2n1)c1ccc(C(=O)N[C@@H](CCC(=O)O)C(=O)O)cc1 [METHOTREXATE]
> 0.2 µM: [1] | [2] | [3]; Homo sapiens, NCI-H1703 | [4]; Homo sapiens, MEL-JUSO | [5] | [6] | [7] | [8] | [9] | [10] | [11] | [12]

Cc1cc([C@@H](C)Nc2ccccc2C(=O)O)c2nc(N3CCOCC3)cc(=O)n2c1 [AZD-6482]
> 5.12 µM: [13] | [14] | [15] | [19] | [20]; nci-h522 | [21] | [22] | [23]; hct-15 | [24] | [25] | [26] | [27] | [28] | [29] | [3]; Homo sapiens, NCI-H1703 | [3]; nci-h1703 | [4]; mel-juso | [30] | [32] | [33] | [35] | [36] | [37] | [38] | [39] | [6] | [7] | [40] | [41] | [42] | [43] | [44]; nci-h460 | [8] | [45] | [9] | [46] | [47] | [48] | [11] | [49] | [52] | [53] | [54] | [55] | [56] | [58] | [60] | [61]
1.07 µM: [18]
3.9 µM and > 5.12 µM: [57]; g-361
2.98 µM: [34]
0.705 µM: [16]
1.75 µM: [17]
2.62 µM: [50]
0.644 µM: [59]
1.58 µM: [10]
5.01 µM and > 5.12 µM: [51]; nci-h2009
1.95 µM: [2]
2.94 µM: [12]
1.23 µM: [5]
4.18 µM: [31]

Cn1cc(C2=C(c3ccc(Cl)cc3Cl)C(=O)NC2=O)c2ccccc21 [SB-216763]
> 10 µM: [1] | [23]; Homo sapiens, HCT-15 | [2] | [3]; Homo sapiens, NCI-H1703 | [4]; Homo sapiens, MEL-JUSO | [5] | [6] | [7] | [44]; Homo sapiens, NCI-H460 | [8] | [9] | [10] | [11] | [51]; Homo sapiens, NCI-H2009 | [12] | [57]; Homo sapiens, G-361 | [58]

O=c1cc(-c2cccc3c2Sc2ccccc2S3)oc(N2CCOCC2)c1 [KU-55933]
> 10 µM: [1] | [20]; Homo sapiens, NCI-H522 | [23]; Homo sapiens, HCT-15 | [2] | [3]; Homo sapiens, NCI-H1703 | [4]; Homo sapiens, MEL-JUSO | [5] | [6] | [7] | [44]; Homo sapiens, NCI-H460 | [8] | [9] | [10] | [11] | [51]; Homo sapiens, NCI-H2009 | [12] | [57]; Homo sapiens, G-361 | [58]

CCC1=C[C@@H]2CN(C1)Cc1c([nH]c3ccccc13)[C@@](C(=O)OC)(c1cc3c(cc1OC)N(C)[C@H]1[C@@](O)(C(=O)OC)[C@H](OC(C)=O)[C@]4(CC)C=CCN5CC[C@]31[C@@H]54)C2 [VINORELBINE]
0.0171 µM: [27]
0.00542 µM: [26]
0.00584 µM: [49]
0.0212 µM: [60]
0.039 µM: [37]
> 0.064 µM: [14] | [15] | [18] | [19] | [21] | [23]; Homo sapiens, HCT-15 | [25] | [34] | [42] | [43] | [45] | [46] | [48] | [52] | [53] | [54] | [56]
0.0293 µM: [58]
0.00727 µM: [50]
0.00846 µM: [51]; Homo sapiens, NCI-H2009
0.00353 µM: [57]; Homo sapiens, G-361
0.0241 µM: [36]
0.00939 µM: [41]
0.00927 µM: [22]
0.00426 µM: [4]; Homo sapiens, MEL-JUSO
0.0067 µM: [17]
0.0601 µM: [55]
0.00594 µM: [16]
0.014 µM: [13]
0.057 µM: [29]
0.0178 µM: [24]
0.0154 µM: [31]
0.0113 µM: [40]
0.0449 µM: [39]
0.00689 µM: [38]
0.0072 µM: [30]
0.00721 µM: [35]
0.0365 µM: [33]
0.00698 µM: [44]; Homo sapiens, NCI-H460
0.0444 µM: [32]
0.0448 µM: [61]
0.00686 µM: [59]
0.000535 µM: [20]; Homo sapiens, NCI-H522
0.00283 µM: [3]; Homo sapiens, NCI-H1703
0.0106 µM: [28]
0.00296 µM: [47]
